Source: patent US20030124150A1, “Kit for reducing aching” (priority 2001, published 2003)

Columns and labels:
[1] = system: subjects; assay: Study 2: Compound A multiple dosing, non-escalating (Example 3) vs escalating (Example 4), myalgia/back pain (aching); type: in vivo; conditions: for Myalgia/back pain, Mild/moderate / Myalgia/back pain, Severe: subjects affected/dosed
Protocol: (§1) All adverse events observed or recorded during the studies were recorded by the investigator, including information about concomitant illnesses and therapeutic interventions. For all adverse events, the investigator pursued and obtained information adequate to determine the outcome of the adverse event. Physical examinations at screening and medical histories of all subjects were normal with no indication of any joint, muscle, or tendon weakness.
Six subjects were given 20 mg of Compound A three times a day (tid) for 7 days. Dosage took the form of immediate release tablets.
Nine subjects were given 2.5 mg of Compound A three times a day (tid) for 7 days, then 7.5 mg tid for 7 days, then 20 mg tid for a further 7 days. Dosage took the form of immediate release tablets.

[2] = system: subjects; assay: Study 3: Compound A escalating dosing with 24-hour drug holiday (Examples 6 and 7), myalgia and back pain (aching); type: in vivo; conditions: for Back pain, Mild / Back pain, Moderate / Back pain, Severe / Myalgia, Mild / Myalgia, Moderate / Myalgia, Severe: 20 mg tid 7 days, 24-hour drug holiday, 20 mg tid 6 days, subjects affected/dosed
Protocol: as §1
(§2) Nine subjects were given 2.5 mg of Compound A three times a day (tid) for 7 days followed by 20 mg tid for a further 7 days. The subjects were given a 24-hour drug holiday, i.e. a day without taking the inhibitor, then 20 mg tid dosing was continued for another 6 days. Dosage took the form of immediate release tablets.
as §2, with “4 days, then 7.5 mg tid for 3 days, then” for “7 days followed by”

[3] = system: subjects; assay: Aching as side effect of multiple dosing of PDE5 inhibitors (background observations); conditions: for aching as a side effect of multiple dosing: in vivo
Description: A problem associated with the multiple daily dosing of PDE5 inhibitors is that subjects experience, as a side effect, aching in certain parts of the body. Subjects describe this aching as predominantly a dull aching without muscle tenderness. Aching is experienced predominantly in the“postural muscles”, typically the calves, thighs, buttocks, lower back, shoulders and neck regions. These symptoms may be described as myalgia or back pain; for the purposes of this application, they will be referred to as“aching”.

[4] = system: subjects; assay: Study 1: double blind, placebo-controlled, multiple dose study of sildenafil, adverse events (myalgia, back pain); type: in vivo; conditions: for Back pain / Myalgia: oral capsules, subjects affected/subjects dosed
Protocol: as §1
Dosage took the form of oral capsules.

[5] = system: subjects; conditions: reported by H Padma-Nathan et al and Eli Lilly/ICOS presentation; cited from earlier work
[6] = Example 3: 20 mg tid for 7 days, immediate release tablets
[7] = Example 4: 2.5 mg tid 7 days, then 7.5 mg tid 7 days, then 20 mg tid 7 days
[8] = Example 4 escalating dosing regime
[9] = Example 6 escalating dosing regime
[10] = Example 7: 2.5 mg tid 4 days, 7.5 mg tid 3 days
[11] = Example 7 escalating dosing regime

Structure (SMILES): CCCc1nn(C)c2c(=O)[nH]c(-c3cc(C(=O)CN4CCOCC4)ccc3OCC)nc12 [Compound A, 5-(2-ethoxy-5-morpholinoacetylphenyl)-1-methyl-3-n-propyl-1,6-dihydro-7H-pyrazolo[4,3-d]pyrimidin-7-one]
- Myalgia/back pain, Mild/moderate [1, 6]: 0/6
- Myalgia/back pain, Severe [1, 6]: 6/6
- subjects withdrawn due to the severity of the aching ([1]; Example 3: 20 mg tid, after only 4 days of treatment, six subjects): four
- Myalgia/back pain, Mild/moderate [1, 7]: 1/9
- Myalgia/back pain, Severe [1, 7]: 1/9
- aching compared with non-escalating regime of Example 3 [1, 8]: significant reduction in aching
- withdrawals [1, 8]: no withdrawals
- incidence of aching after the 24-hour drug-free period ([2]; Example 6, 20 mg tid resumed): no apparent increase
- Back pain, Mild ([2]; Example 6: 2.5 mg tid 7 days): 2/9
- Back pain, Moderate ([2]; Example 6: 2.5 mg tid 7 days): 0/9
- Back pain, Severe ([2]; Example 6: 2.5 mg tid 7 days): 0/9
- Myalgia, Mild ([2]; Example 6: 2.5 mg tid 7 days): 2/9
- Myalgia, Moderate ([2]; Example 6: 2.5 mg tid 7 days): 3/9
- Myalgia, Severe ([2]; Example 6: 2.5 mg tid 7 days): 1/9
- aching compared with non-escalating regime of Example 3 [2, 9]: significant reduction in aching
- withdrawals [2, 9]: no withdrawals
- effectiveness of triple dosing in reducing aching ([2]; Example 7 (triple dosing)): particularly effective in reducing aching
- incidence of aching after the 24-hour drug-free period ([2]; Example 7, 20 mg tid resumed): no apparent increase
- Back pain, Mild [2, 10]: 0/9
- Back pain, Moderate [2, 10]: 0/9
- Back pain, Severe [2, 10]: 0/9
- Myalgia, Mild [2, 10]: 4/9
- Myalgia, Moderate [2, 10]: 1/9
- Myalgia, Severe [2, 10]: 0/9
- aching compared with non-escalating regime of Example 3 [2, 11]: significant reduction in aching
- withdrawals [2, 11]: no withdrawals

Structure (SMILES): CCCOc1ccc(S(=O)(=O)N2CCN(CC)CC2)cc1-c1nc2c(CC)n(Cc3ccccn3)nc2c(=O)[nH]1 [WO 98/49166, Example 4, 3-ethyl-5-[5-(4-ethylpiperazin-1-ylsulphonyl)-2-n-propoxyphenyl]-2-(pyridin-2-yl)methyl-2,6-dihydro-7H-pyrazolo[4,3-d]pyrimidin-7-one]
- aching as a side effect of multiple dosing [3]: observed

Structure (SMILES): CCc1c2nc(-c3cc(S(=O)(=O)N4CCN(CC)CC4)cnc3OCCOC)[nH]c(=O)c2nn1Cc1ccccn1 [WO 99/54333, Example 4, 3-ethyl-5-[5-(4-ethylpiperazin-1-ylsulphonyl)-2-(2-methoxyethoxy)pyridin-3-yl]-2-(pyridin-2-yl)methyl-2,6-dihydro-7H-pyrazolo[4,3-d]-pyrimidin-7-one]
- aching as a side effect of multiple dosing [3]: observed

Structure (SMILES): CCCc1nn(C)c2c(=O)[nH]c(-c3cc(S(=O)(=O)N4CCN(C)CC4)ccc3OCC)nc12 [sildenafil, 5-[2-ethoxy-5-(4-methyl-1-piperazinylsulphonyl)phenyl]-1-methyl-3-n-propyl-1,6-dihydro-7H-pyrazolo[4,3-d]pyrimidin-7-one]
- Back pain ([4]; 25 mg tid): 2/10
- Myalgia ([4]; 25 mg tid): 2/10
- Back pain ([4]; 50 mg tid): 2/9
- Myalgia ([4]; 50 mg tid): 5/9
- reports of severe treatment-related adverse events which led to discontinuance of the treatment ([4]; 75 mg tid): three
- Back pain ([4]; 75 mg tid): 5/8
- Myalgia ([4]; 75 mg tid): 3/8
- most common adverse events ([4]; 25, 50 or 75 mg tid): back pain, headache and myalgia
- persistence of headache and myalgia that occurred after a few days of treatment ([4]; lower doses (25 mg tid and 50 mg tid)): did not persist with further treatment
- incidence of aching ([3]; 25 mg tid): 60%
- incidence of aching ([3]; 75 mg tid): 100%
- day by which aching disappears ([3]; higher doses (for example, 75 mg tid)): sixth or seventh day
- day on which aching generally commences ([3]; multiple dosing regime): second or third day

Structure (SMILES): CN1CC(=O)N2[C@H](c3ccc4c(c3)OCO4)c3[nH]c4ccccc4c3C[C@@H]2C1=O [tadalafil, (6R, 12aR)-2,3,6,7,12,12a-hexahydro-2-methyl-6-(3,4-methylenedioxyphenyl)-pyrazino[2′,1′:6,1]pyrido[3,4-b]indole-1,4-dione]
- backache and myalgia [5]: reported to cause backache and myalgia
